“And” between values parts separate entries of the source, which are not always exact repeats. Equal entries are not always repeated. Toxic doses and inconclusive results are not listed. How the source made its calls: active means survival T/C of 150% or more; inactive means T/C below 125% in these data.
Test system: BDF1 mice, P388 leukemia ip, median survival T/C
Assay: NCI In Vivo Anticancer Drug Screen. Data for tumor model P388 Leukemia (intraperitoneal) in B6D2F1 (BDF1) mice
Details: endpoint: median survival time, higher = longer survival
Method in brief: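 Each value expresses how treatment altered survival: treated-mouse outcome over vehicle-mouse outcome, both groups bearing the transplanted tumour.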

[1] = dose: 25.0 mg/kg/injection, schedule: Q01DX009 (ip), vehicle: saline with Tween-80
[2] = dose: 50.0 mg/kg/injection, schedule: Q01DX009 (ip), vehicle: saline with Tween-80
[3] = dose: 50.0 mg/kg/injection, schedule: Q04DX003 (ip), vehicle: saline with Tween-80
[4] = dose: 100.0 mg/kg/injection, schedule: Q01DX009 (ip), vehicle: saline with Tween-80
[5] = dose: 100.0 mg/kg/injection, schedule: Q04DX003 (ip), vehicle: saline with Tween-80
[6] = dose: 200.0 mg/kg/injection, schedule: Q01DX009 (ip), vehicle: saline with Tween-80
[7] = dose: 200.0 mg/kg/injection, schedule: Q04DX003 (ip), vehicle: saline with Tween-80
[8] = dose: 400.0 mg/kg/injection, schedule: Q01DX009 (ip), vehicle: saline with Tween-80
[9] = dose: 400.0 mg/kg/injection, schedule: Q04DX003 (ip), vehicle: saline with Tween-80
[10] = dose: 100.0 mg/kg/injection, schedule: Q04DX003 (ip), vehicle: saline
[11] = dose: 200.0 mg/kg/injection, schedule: Q04DX003 (ip), vehicle: saline
[12] = dose: 100.0 mg/kg/injection, schedule: Q01DX009 (ip), vehicle: Klucel (hydroxypropylcellulose) (HPC)
[13] = dose: 100.0 mg/kg/injection, schedule: Q04DX003 (ip), vehicle: Klucel (hydroxypropylcellulose) (HPC)
[14] = dose: 200.0 mg/kg/injection, schedule: Q01DX009 (ip), vehicle: Klucel (hydroxypropylcellulose) (HPC)
[15] = dose: 200.0 mg/kg/injection, schedule: Q04DX003 (ip), vehicle: Klucel (hydroxypropylcellulose) (HPC)
[16] = dose: 400.0 mg/kg/injection, schedule: Q01DX009 (ip), vehicle: Klucel (hydroxypropylcellulose) (HPC)
[17] = dose: 400.0 mg/kg/injection, schedule: Q04DX003 (ip), vehicle: Klucel (hydroxypropylcellulose) (HPC)
[18] = dose: 50.0 mg/kg/injection, schedule: Q01DX005 (ip), vehicle: saline with Tween-80
[19] = dose: 200.0 mg/kg/injection, schedule: Q01DX005 (ip), vehicle: saline with Tween-80

Measured: T/C

CN(C)C(=O)c1cccc(NCc2ccc3nc(N)nc(N)c3c2)c1
inactive: dose: 3.12 mg/kg/injection, schedule: Q01DX009 (ip), vehicle: saline with Tween-80 108 % of control | dose: 6.25 mg/kg/injection, schedule: Q01DX009 (ip), vehicle: saline with Tween-80 99 % of control | dose: 12.5 mg/kg/injection, schedule: Q01DX009 (ip), vehicle: saline with Tween-80 106 % of control | [1] 99 % of control | [2] 95 % of control and 108 % of control | [3] 100 % of control | [4] 91 % of control | [5] 100 % of control | [6] 101 % of control | [7] 104 % of control | [8] 94 % of control | [9] 102 % of control

N#Cc1ccc(OC(=O)c2ccc(N=C(N)N)cc2)cc1
inactive: dose: 50.0 mg/kg/injection, schedule: Q01DX009 (ip), vehicle: saline 100 % of control | dose: 100.0 mg/kg/injection, schedule: Q01DX009 (ip), vehicle: saline 104 % of control | [10] 104 % of control | dose: 200.0 mg/kg/injection, schedule: Q01DX009 (ip), vehicle: saline 90 % of control | [11] 113 % of control

CCCCOC(=O)C(C)OC(=O)Nc1ccccc1 (centres undefined)
inactive: dose: 100.0 mg/kg/injection, schedule: Q04DX003 (sc), vehicle: olive oil, sesame oil, peanut oil 100 % of control | dose: 200.0 mg/kg/injection, schedule: Q04DX003 (sc), vehicle: olive oil, sesame oil, peanut oil 88 % of control | dose: 400.0 mg/kg/injection, schedule: Q04DX003 (sc), vehicle: olive oil, sesame oil, peanut oil 103 % of control

COc1cc(NC(=O)N(CCCl)N=O)cc(OC)c1OC
inactive: dose: 0.88 mg/kg/injection, schedule: Q04DX003 (ip), vehicle: saline + alcohol 114 % of control | dose: 18.7 mg/kg/injection, schedule: Q01DX009 (ip), vehicle: saline + alcohol 111 % of control | dose: 25.0 mg/kg/injection, schedule: Q01DX009 (ip), vehicle: saline + alcohol 108 % of control
active: dose: 1.6 mg/kg/injection, schedule: Q01DX009 (ip), vehicle: saline + alcohol 168 % of control | dose: 2.4 mg/kg/injection, schedule: Q01DX009 (ip), vehicle: saline + alcohol 161 % of control | dose: 3.0 mg/kg/injection, schedule: Q04DX003 (ip), vehicle: saline + alcohol 166 % of control | dose: 3.7 mg/kg/injection, schedule: Q01DX009 (ip), vehicle: saline + alcohol 203 % of control | dose: 5.5 mg/kg/injection, schedule: Q04DX003 (ip), vehicle: saline + alcohol 168 % of control | dose: 5.56 mg/kg/injection, schedule: Q01DX009 (ip), vehicle: saline + alcohol 201 % of control and 203 % of control | dose: 8.3 mg/kg/injection, schedule: Q04DX003 (ip), vehicle: saline + alcohol 218 % of control | dose: 8.33 mg/kg/injection, schedule: Q01DX009 (ip), vehicle: saline + alcohol 220 % of control | dose: 12.5 mg/kg/injection, schedule: Q01DX009 (ip), vehicle: saline + alcohol 226 % of control | dose: 12.5 mg/kg/injection, schedule: Q04DX003 (ip), vehicle: saline + alcohol 227 % of control | dose: 18.7 mg/kg/injection, schedule: Q04DX003 (ip), vehicle: saline + alcohol 268 % of control

NC(Cc1ccccc1Cl)c1nn[nH]n1 (centres undefined)
inactive: dose: 50.0 mg/kg/injection, schedule: Q04DX002 (ip), vehicle: saline with Tween-80 100 % of control | dose: 200.0 mg/kg/injection, schedule: Q04DX002 (ip), vehicle: saline with Tween-80 121 % of control

COC(=O)c1cc(C)c(Br)c(N)c1
inactive: [12] 105 % of control | [13] 109 % of control | [14] 100 % of control | [15] 104 % of control | [16] 100 % of control | [17] 109 % of control

CC1(C(=O)O)CCC(C(=O)Nc2ccccc2)C1(C)C (centres undefined)
inactive: [4] 92 % of control | [5] 100 % of control | [6] 92 % of control | [7] 90 % of control | [8] 92 % of control | [9] 104 % of control

CC(C)(C)OC(=O)NC(CC(Cc1ccccc1)C(=O)O)C(=O)NC(CC(Cc1ccccc1)C(=O)O)C(=O)NC(CC(Cc1ccccc1)C(=O)O)C(=O)NCC(=O)Oc1ccc([N+](=O)[O-])cc1 (centres undefined)
inactive: [18] 86 % of control | [19] 104 % of control

CCC(=O)c1ccc(OCC(O)CN2CCC(O)(c3ccccc3)CC2)cc1 (centres undefined)
inactive: [1] 111 % of control | dose: 25.0 mg/kg/injection, schedule: Q04DX003 (ip), vehicle: saline with Tween-80 109 % of control | [2] 103 % of control | [3] 109 % of control | [4] 88 % of control | [5] 104 % of control

CCOc1ccc2nc(/C=C\c3cc4c5c(c3)CCCN5CCC4)ccc2c1
inactive: [12] 90 % of control | [13] 100 % of control | [14] 109 % of control | [15] 100 % of control | [16] 104 % of control | [17] 95 % of control

CC1(C)OS2(OC(C)(C)c3ccccc32)c2ccccc21
inactive: dose: 50.0 mg/kg/injection, schedule: Q01DX009 (ip), vehicle: other 101 % of control | dose: 100.0 mg/kg/injection, schedule: Q01DX009 (ip), vehicle: other 107 % of control | dose: 200.0 mg/kg/injection, schedule: Q01DX009 (ip), vehicle: other 117 % of control

O=[N+]([O-])c1ccc(N2CCN=N2)cc1
inactive: dose: 25.0 mg/kg/injection, schedule: Q01DX010 (ip), vehicle: saline 104 % of control | dose: 25.0 mg/kg/injection, schedule: Q04DX003 (ip), vehicle: saline sonified 100 % of control | dose: 50.0 mg/kg/injection, schedule: Q01DX010 (ip), vehicle: saline 123 % of control | dose: 50.0 mg/kg/injection, schedule: Q04DX003 (ip), vehicle: saline sonified 95 % of control | dose: 100.0 mg/kg/injection, schedule: Q04DX003 (ip), vehicle: saline sonified 86 % of control

Oc1ccccc1-c1nnc2n1N=C(c1ccc(-c3ccccc3)cc1)CS2
inactive: [2] 98 % of control | [4] 98 % of control | [6] 92 % of control

CC1(C)OC2(C)CCC1C(=O)C2N1CCCCC1 (centres undefined)
inactive: [18] 105 % of control | dose: 100.0 mg/kg/injection, schedule: Q01DX005 (ip), vehicle: saline with Tween-80 95 % of control | [19] 101 % of control

CCCCCC(C(C)=O)(C1=NC(C)(C)CC(C)O1)c1ccccc1 (centres undefined)
inactive: [10] 110 % of control | [11] 95 % of control

CCC(=O)O[C@H]1CC[C@H]2[C@@H]3CCC4=CC(=O)C[C@]4(C)[C@H]3CC[C@]12C
inactive: [2] 100 % of control | [4] 100 % of control | [5] 110 % of control | [6] 113 % of control | [7] 105 % of control

O=C(NCCCl)N(CCCl)C(=O)Oc1c(Cl)c(Cl)c(Cl)c(Cl)c1Cl
inactive: dose: 50.0 mg/kg/injection, schedule: Q01DX005 (ip), vehicle: Klucel (hydroxypropylcellulose) (HPC) 97 % of control | dose: 100.0 mg/kg/injection, schedule: Q01DX005 (ip), vehicle: Klucel (hydroxypropylcellulose) (HPC) 105 % of control | dose: 200.0 mg/kg/injection, schedule: Q01DX005 (ip), vehicle: Klucel (hydroxypropylcellulose) (HPC) 91 % of control

COC(=O)C(Br)C(Br)c1ccc(-c2ccccc2)cc1 (centres undefined)
inactive: [5] 92 % of control | [7] 89 % of control | [9] 104 % of control

CCCN(CCC)CCCCO
inactive: dose: 22.0 mg/kg/injection, schedule: Q04DX003 (ip), vehicle: saline 104 % of control | dose: 33.0 mg/kg/injection, schedule: Q04DX003 (ip), vehicle: saline 109 % of control | dose: 50.0 mg/kg/injection, schedule: Q04DX003 (ip), vehicle: saline 104 % of control | dose: 75.0 mg/kg/injection, schedule: Q04DX003 (ip), vehicle: saline 104 % of control

CC1(C)CC(=O)CC(C)(C)N1O
inactive: [13] 100 % of control | [15] 100 % of control | [17] 104 % of control

COc1cc2c3cc1Oc1c(OC)c(OC)cc4c1C(Cc1cc5c(c(c1)Oc1ccc(cc1)CC3N(C)CC2)OCO5)N(C)CC4 (centres undefined)
inactive: dose: 5.0 mg/kg/injection, schedule: Q01DX010 (ip), vehicle: saline 90 % of control | dose: 20.0 mg/kg/injection, schedule: Q01DX010 (ip), vehicle: saline 104 % of control | dose: 40.0 mg/kg/injection, schedule: Q01DX010 (ip), vehicle: saline 95 % of control
